Activity calls are given as the source filed them. No cut-off for these calls is given here.
Columns and labels:
[1] = target: T1, Trace amine-associated receptor 1 (Homo sapiens) (UniProt Q96RJ0); assay: Agonist activity at human TAAR1 receptor expressed in HEK293T cells cotransfected with beta-2 receptor assessed as cAMP production by BRET assay relative to beta-PEA; format: functional, cell-based; design: concentration or dose not given beside the values; conditions: HEK-293T
T1 sequence (whole entry): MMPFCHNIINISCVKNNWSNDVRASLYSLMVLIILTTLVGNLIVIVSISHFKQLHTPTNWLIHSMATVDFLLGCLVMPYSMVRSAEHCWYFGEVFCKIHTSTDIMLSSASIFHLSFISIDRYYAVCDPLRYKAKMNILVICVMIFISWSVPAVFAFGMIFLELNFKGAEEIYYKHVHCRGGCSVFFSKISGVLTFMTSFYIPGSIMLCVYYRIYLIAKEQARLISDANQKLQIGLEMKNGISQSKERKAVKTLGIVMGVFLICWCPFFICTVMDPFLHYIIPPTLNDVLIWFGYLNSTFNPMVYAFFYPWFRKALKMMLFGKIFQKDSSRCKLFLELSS

[2] = target: T1, Trace amine-associated receptor 1 (Homo sapiens); assay: Agonist activity at human TAAR1 receptor expressed in HEK293T cells cotransfected with beta-2 receptor assessed as cAMP production at 100 uM by BRET assay; format: functional, cell-based; conditions: HEK-293T
[3] = target: T1, Trace amine-associated receptor 1 (Homo sapiens); assay: Antagonist activity at human TAAR1 receptor expressed in HEK293T cells cotransfected with beta-2 receptor assessed as inhibition of beta-PEA-induced cAMP production at 100 uM by BRET assay; format: functional, cell-based; conditions: HEK-293T
[4] = target: T2, Trace amine-associated receptor 1 (Homo sapiens, UniProt Q96RJ0); assay: Agonist activity at human TAAR1 receptor expressed in HEK293T cells cotransfected with beta-2 receptor assessed as cAMP production by BRET assay; format: functional, cell-based, HEK-293T
T2 sequence (Q96RJ0 whole entry): T1 sequence (whole entry)

Row | Compound | Activity [1] [%] | Activity [2] | Activity [3] | EC50 [4] [µM]
1 | N=C(N)N/N=C/c1cccc(Br)c1 | -5.4 |  |  | 
2 | c1ccc2c(c1)nnn2C[C@H]1CCCN1 |  | Active |  | 
3 | C#CCN[C@H](C)Cc1ccccc1 |  | Active |  | 
4 | CCC(=O)/N=C(\N)Nc1nc2ccccc2o1 |  |  | Active | 
5 | N=C(N)N/N=C1\CCCc2ccccc21 |  |  | Active | 
6 | N=C(N)N/N=C/c1ccccc1 | 85.5 |  |  | 0.17
7 | NC(N)=N/N=C/c1cccc(Br)c1 |  |  |  | > 100
8 | C=CCn1cc(CN[C@H](C)Cn2ccc3ccccc32)c(C)n1 |  |  | Active | 
9 | Cn1c(C2CCCCN2)nc2ccccc21 (centres undefined) | 38.4 |  |  | > 100
10 | Cn1c(CN)nc2ccccc21 | 21.6 |  |  | > 100
11 | c1ccc2sc(C3CCCN3)nc2c1 (centres undefined) | 42.9 |  |  | > 100
12 | N=C(N)N/N=C/c1ccc2c(c1)OCO2 | 6.9 |  |  | > 100
13 | COc1ccc2[nH]cc(CN(C)C)c2c1 |  | Active |  | 
14 | N=C(N)N/N=C/c1c(Cl)cccc1Cl [GUANABENZ] | 35.5 |  |  | 0.09
15 | N=C(N)c1cccc(COc2ccccc2)c1 |  |  | Active | 
16 | NC(N)=N/N=C/c1cccc(OCc2ccccc2)c1 |  |  |  | > 100
17 | COc1cccc(/C=N/NC(=N)N)c1 | 24 | Active | Active | 
18 | CCn1c(C2CCCN2)nc2ccccc21 (centres undefined) | 22.1 |  |  | > 100
19 | CN(Cc1ccc(Br)cc1)Cc1cccc(C(N)=O)c1 |  |  | Active | 
20 | Cn1c(C2CCCN2)nc2ccccc21 (centres undefined) | 55.8 | Active |  | 18.1
21 | CC(C)n1c(C2CCCN2)nc2ccccc21 (centres undefined) | 43.4 |  |  | 12.1
22 | CN(Cn1ncc2cc([N+](=O)[O-])ccc21)[C@@H]1CCc2ccccc21 |  | Active |  | 
23 | COc1cccc(/C=N/N=C(N)N)c1 |  |  |  | 1.23
24 | C[C@@H](CNCCO)c1ccccc1 |  | Active |  | 
25 | Cc1cccc(CCN(C)C[C@H](O)c2ccccc2)c1 | 67.5 | Active |  | 51.6
26 | N=C(N)N/N=C/c1cccc(OCc2ccccc2)c1 | 75 |  |  | 
27 | Clc1ccc(CNCc2ccc(Cn3cncn3)cc2)c(Cl)c1 |  |  | Active | 
28 | NCCc1ccccc1 [PHENETHYLAMINE] |  |  |  | 0.11
29 | Fc1ccc2c(CCNCc3cnn(-c4ccccc4)c3)c[nH]c2c1 |  |  | Active | 
30 | CNCc1nc2ccccc2n1C(F)F |  | Active |  | 
